# Molecular target: T1, CRMP2 (collapsin response mediator protein 2) (Rattus norvegicus, UniProt P47942)
# T1 construct: gene Dpysl2; purified recombinant wild-type CRMP2 (GST construct), NT647-labeled
# Test: microscale thermophoresis (MST), Hill fit
# Type: binding
smiles,measurement,value
"COC[C@H](NC(C)=O)C(=O)NCc1ccccc1 [(S)-LCM, (S)-lacosamide]",Kd,1.5 ± 0.01 µM

# — paper PMC4109617, “The functionalized amino acid (S)-Lacosamide subverts CRMP2-mediated tubulin polymerization to prevent constitutive and activity-dependent increase in neurite outgrowth” (Frontiers in Cellular Neuroscience, 2014)
